# Measured values reported in patent publication US8258114B2, “Modulation of glucose-6-phosphatase translocase expression” (Isis Pharmaceuticals, Inc., priority 2004, dated 2012).
# Oligonucleotides are written 5' to 3', each unit as a sugar letter and its base; * is a phosphorothioate linkage, no mark a phosphodiester; rarer units and linkages stand in square brackets, end groups in braces. Plain capitals give the bases only. e = 2'-O-(2-methoxyethyl) (MOE); [5mC] = 5-methylcytosine; d = 2'-deoxy (DNA)
# Test system: mouse glucose-6-phosphatase translocase mRNA
# Experiment: Antisense inhibition of mouse glucose-6-phosphatase translocase mRNA in primary mouse hepatocytes, 50 nM (Table 5)
# Type: cell-based
# Settings: 50 nM oligonucleotide, mRNA by real-time PCR, normalized with RIBOGREEN
# Experimental: Primary mouse hepatocytes were prepared from CD-1 mice purchased from Charles River Labs. Primary mouse hepatocytes were routinely cultured in Hepatocyte Attachment Media supplemented with 10% fetal bovine serum (Invitrogen Life Technologies, Carlsbad, Calif.), 250 nM dexamethasone, and 10 nM bovine insulin (Sigma-Aldrich, St. Louis, Mo.). Cells were seeded into 96-well plates (Falcon-Primaria #353872, BD Biosciences, Bedford, Mass.) at a density of approximately 4,000-6,000 cells/well for use in oligomeric compound transfection experiments.
# Quantitation of glucose 6-phosphatase translocase mRNA levels was accomplished by real-time quantitative PCR using the ABI PRISM™ 7600, 7700, or 7900 Sequence Detection System (PE-Applied Biosystems, Foster City, Calif.) according to manufacturer's instructions.
# Prior to quantitative PCR analysis, primer-probe sets specific to the target gene being measured were evaluated for their ability to be “multiplexed” with a GAPDH amplification reaction. After isolation the RNA is subjected to sequential reverse transcriptase (RT) reaction and real-time PCR, both of which are performed in the same well. RT and PCR reagents were obtained from Invitrogen Life Technologies (Carlsbad, Calif.). […] The RT reaction was carried out by incubation for 30 minutes at 48° C. Following a 10 minute incubation at 95° C. to activate the PLATINUM® Taq, 40 cycles of a two-step PCR protocol were carried out: 95° C. for 15 seconds (denaturation) followed by 60° C. for 1.5 minutes (annealing/extension).
# Gene target quantities obtained by RT, real-time PCR were normalized using either the expression level of GAPDH, a gene whose expression is constant, or by quantifying total RNA using RiboGreen™ (Molecular Probes, Inc. Eugene, Oreg.). GAPDH expression was quantified by RT, real-time PCR, by being run simultaneously with the target, multiplexing, or separately. Total RNA was quantified using RiboGreen™ RNA quantification reagent (Molecular Probes, Inc. Eugene, Oreg.).
# A series of oligomeric compounds was designed to target different regions of mouse glucose-6-phosphatase translocase, using published sequences cited in Table 1. All compounds in Table 5 are chimeric oligonucleotides (“gapmers”) 20 nucleotides in length, composed of a central “gap” region consisting of 10 2′-deoxynucleotides, which is flanked on both sides (5′ and 3′) by five-nucleotide “wings”. The wings are composed of 2′-O-(2-methoxyethyl) nucleotides, also known as 2′-MOE nucleotides. The internucleoside (backbone) linkages are phosphorothioate throughout the oligonucleotide. All cytidine residues are 5-methylcytidines. The compounds were analyzed for their effect on gene target mRNA levels by quantitative real-time PCR as described in other examples herein, using the following primer-probe set designed to hybridize to mouse glucose-6-phosphatase translocase: • forward primer: […] (SEQ ID NO: 66) • reverse primer: CCATCCCAGCCATCATGAG (SEQ ID NO: 67) and the PCR probe was: FAM-[…]-TAMRA (SEQ ID NO: 68) where FAM is the fluorescent reporter dye and TAMRA is the quencher dye. Mouse target gene quantities were normalized by quantifying total RNA using RIBOGREEN™.
# Data are from experiments in which primary mouse hepatocytes were treated with 50 nM of the antisense oligonucleotides of the present invention. A reduction in expression is expressed as percent inhibition in Table 5. If present, “N.D.” indicates “not determined”. The target regions to which these oligomeric compounds are inhibitory are herein referred to as “validated target segments.”
row,Sequence,% Inhib [%]
1,GGCAGAAACCACAGGCCATT (eG*eG*e[5mC]*eA*eG*dA*dA*dA*d[5mC]*d[5mC]*dA*d[5mC]*dA*dG*dG*e[5mC]*e[5mC]*eA*eT*eT; antisense) [ISIS 149000],56
2,TCATGCTGGTTGACAACACA (eT*e[5mC]*eA*eT*eG*d[5mC]*dT*dG*dG*dT*dT*dG*dA*d[5mC]*dA*eA*e[5mC]*eA*e[5mC]*eA; antisense) [ISIS 148955],36
3,GTGATGAGCCCCAAATCGTC (eG*eT*eG*eA*eT*dG*dA*dG*d[5mC]*d[5mC]*d[5mC]*d[5mC]*dA*dA*dA*eT*e[5mC]*eG*eT*e[5mC]; antisense) [ISIS 148948],52
4,CTGCTGGCCCACTCCAGTAC (e[5mC]*eT*eG*e[5mC]*eT*dG*dG*d[5mC]*d[5mC]*d[5mC]*dA*d[5mC]*dT*d[5mC]*d[5mC]*eA*eG*eT*eA*e[5mC]; antisense) [ISIS 148940],61
5,CACGGCTCCCAAAACCAGGA (e[5mC]*eA*e[5mC]*eG*eG*d[5mC]*dT*d[5mC]*d[5mC]*d[5mC]*dA*dA*dA*dA*d[5mC]*e[5mC]*eA*eG*eG*eA; antisense) [ISIS 148977],9
6,GGGACCTCATTAGCCACTGG (eG*eG*eG*eA*e[5mC]*d[5mC]*dT*d[5mC]*dA*dT*dT*dA*dG*d[5mC]*d[5mC]*eA*e[5mC]*eT*eG*eG; antisense) [ISIS 148993],55
7,AGGGTATTCATGAGAGTGGT (eA*eG*eG*eG*eT*dA*dT*dT*d[5mC]*dA*dT*dG*dA*dG*dA*eG*eT*eG*eG*eT; antisense) [ISIS 149006],36
8,CCAGTGGACAGCACCCAGAG (e[5mC]*e[5mC]*eA*eG*eT*dG*dG*dA*d[5mC]*dA*dG*d[5mC]*dA*d[5mC]*d[5mC]*e[5mC]*eA*eG*eA*eG; antisense) [ISIS 148960],28
9,TCCTCTCCTCCCTTAGGGAC (eT*e[5mC]*e[5mC]*eT*e[5mC]*dT*d[5mC]*d[5mC]*dT*d[5mC]*d[5mC]*d[5mC]*dT*dT*dA*eG*eG*eG*eA*e[5mC]; antisense) [ISIS 149004],42
10,TGCCTGGATCTGCTGAGCTG (eT*eG*e[5mC]*e[5mC]*eT*dG*dG*dA*dT*d[5mC]*dT*dG*d[5mC]*dT*dG*eA*eG*e[5mC]*eT*eG; antisense) [ISIS 148936],39
11,GCCAGTGTGCTGCGCCAGCT (eG*e[5mC]*e[5mC]*eA*eG*dT*dG*dT*dG*d[5mC]*dT*dG*d[5mC]*dG*d[5mC]*e[5mC]*eA*eG*e[5mC]*eT; antisense) [ISIS 148957],57
12,AAGTCGGTTTGCCCTCTATA (eA*eA*eG*eT*e[5mC]*dG*dG*dT*dT*dT*dG*d[5mC]*d[5mC]*d[5mC]*dT*e[5mC]*eT*eA*eT*eA; antisense) [ISIS 149007],64
13,GAGCTACCCACAAGGGCGGA (eG*eA*eG*e[5mC]*eT*dA*d[5mC]*d[5mC]*d[5mC]*dA*d[5mC]*dA*dA*dG*dG*eG*e[5mC]*eG*eG*eA; antisense) [ISIS 148965],16
14,GGGTACGGCAGAAACCACAG (eG*eG*eG*eT*eA*d[5mC]*dG*dG*d[5mC]*dA*dG*dA*dA*dA*d[5mC]*e[5mC]*eA*e[5mC]*eA*eG; antisense) [ISIS 149001],42
15,CACAGAAACGTAAAGGTTCT (e[5mC]*eA*e[5mC]*eA*eG*dA*dA*dA*d[5mC]*dG*dT*dA*dA*dA*dG*eG*eT*eT*e[5mC]*eT; antisense) [ISIS 148991],22
16,CCTAGGAGAAGAAGAAGGGT (e[5mC]*e[5mC]*eT*eA*eG*dG*dA*dG*dA*dA*dG*dA*dA*dG*dA*eA*eG*eG*eG*eT; antisense) [ISIS 148998],21
17,ATGAGAGGTTCCACACAAGT (eA*eT*eG*eA*eG*dA*dG*dG*dT*dT*d[5mC]*d[5mC]*dA*d[5mC]*dA*e[5mC]*eA*eA*eG*eT; antisense) [ISIS 148979],54
18,TCGTCCTTGTCCAGAGCGAT (eT*e[5mC]*eG*eT*e[5mC]*d[5mC]*dT*dT*dG*dT*d[5mC]*d[5mC]*dA*dG*dA*eG*e[5mC]*eG*eA*eT; antisense) [ISIS 148946],70
19,CGAGGGTTCCCATACAGAGA (e[5mC]*eG*eA*eG*eG*dG*dT*dT*d[5mC]*d[5mC]*d[5mC]*dA*dT*dA*d[5mC]*eA*eG*eA*eG*eA; antisense) [ISIS 148971],88
20,AGGTTCTGTGTTAGCCAGAG (eA*eG*eG*eT*eT*d[5mC]*dT*dG*dT*dG*dT*dT*dA*dG*d[5mC]*e[5mC]*eA*eG*eA*eG; antisense) [ISIS 148989],58
21,CAGAGGGTCCAGATTTCGGA (e[5mC]*eA*eG*eA*eG*dG*dG*dT*d[5mC]*d[5mC]*dA*dG*dA*dT*dT*eT*e[5mC]*eG*eG*eA; antisense) [ISIS 148959],−6
22,AGCCCCTGTGCCAGACCATT (eA*eG*e[5mC]*e[5mC]*e[5mC]*d[5mC]*dT*dG*dT*dG*d[5mC]*d[5mC]*dA*dG*dA*e[5mC]*e[5mC]*eA*eT*eT; antisense) [ISIS 148953],58
23,CCAAACTTCCAGCCAGGTTC (e[5mC]*e[5mC]*eA*eA*eA*d[5mC]*dT*dT*d[5mC]*d[5mC]*dA*dG*d[5mC]*d[5mC]*dA*eG*eG*eT*eT*e[5mC]; antisense) [ISIS 148956],27
24,CGCCATGGCCCTGTCTGACA (e[5mC]*eG*e[5mC]*e[5mC]*eA*dT*dG*dG*d[5mC]*d[5mC]*d[5mC]*dT*dG*dT*d[5mC]*eT*eG*eA*e[5mC]*eA; antisense) [ISIS 148969],24
25,ACCCACAAGGGCGGACTGCC (eA*e[5mC]*e[5mC]*e[5mC]*eA*d[5mC]*dA*dA*dG*dG*dG*d[5mC]*dG*dG*dA*e[5mC]*eT*eG*e[5mC]*e[5mC]; antisense) [ISIS 148964],0
26,GCTGAAGGGTAAGCCAGCCA (eG*e[5mC]*eT*eG*eA*dA*dG*dG*dG*dT*dA*dA*dG*d[5mC]*d[5mC]*eA*eG*e[5mC]*e[5mC]*eA; antisense) [ISIS 148980],43
27,CCACAGGCCATTAATACTCA (e[5mC]*e[5mC]*eA*e[5mC]*eA*dG*dG*d[5mC]*d[5mC]*dA*dT*dT*dA*dA*dT*eA*e[5mC]*eT*e[5mC]*eA; antisense) [ISIS 148999],45
